Reference: US8652776B2, “Prediction of QT prolongation based on SNP genotype” (Vanda Pharmaceuticals, Inc., priority 2007, dated 2014)

Key:
[1] = system: patients treated with iloperidone; experiment: Occurrence of torsades de pointes in patients treated with iloperidone; assay type: in vivo, human; settings: any patient treated with iloperidone, to date
[2] = system: patients with schizophrenia; experiment: Change in QTcF from baseline to Day 14 by SNP genotype, phase 3 clinical trial of iloperidone (WGAS); assay type: in vivo, human; settings: iloperidone 12 mg bid
Procedure: To identify new genetic markers of drug-induced QT prolongation, a whole genome association study (WGAS) was conducted as part of a phase 3 clinical trial of iloperidone. The clinical trial was a randomized, double-blind, placebo-, and ziprasidone-controlled multicenter study evaluating the efficacy, safety, and tolerability of a 24 mg/day dose of iloperidone administered twice a day (bid) for 28 days to patients with schizophrenia in acute exacerbation.
Therefore, the change in QT interval was calculated between baseline and Day 14. The Fridericia correction (QTcF) was applied, and a generalized linear model (GLM) statistical analysis using baseline as a covariate was performed. […] Analysis was focused on those SNPs located within or close to genes (<10 kb away) in which the minor genotype group included at least 10% of the patients. Six SNPs of interest were identified in the CERKL, SLCO3A1, BRUNOL4, NRG3, NUBPL, and PALLD genes (Table 1). The possibility that changes in the QT interval reflect drug concentration differences could not be excluded because drug exposure at the time of electrocardiography (ECG) was not known. However, the six SNPs identified here are within genes not expected to play roles in drug absorption, metabolism, or excretion. For these SNPs, genotype calls generated by the microarray set were confirmed by sequencing on a random subset of DNA samples of iloperidone-treated patients. The association of a particular genotype class with lower or higher increased QT was consistent between men and women and across races. Additional SNPs with statistical association at P<0.001 were observed within or near the CERKL, SLCO3A1, NRG3, NUBPL, and PALLD genes (FIGS. 1a-f).
Patients 18 to 65 years of age with diagnoses of schizophrenia according to the Diagnostic and Statistical Manual of Mental Disorders, 4th Edition (disorganized [295.10], paranoid [295.30], or undifferentiated [295.90]) were eligible to participate in the trial. Patients were randomly assigned to iloperidone 12 mg twice a day (bid), ziprasidone 80 mg bid (active control), or placebo. Doses were titrated to their respective target doses from Days 1 to 7 and were maintained until Day 28. Participation in the pharmacogenomic analysis was optional. Blood samples were collected, and DNA was extracted (Quest Diagnostics Laboratories, Van Nuys, Calif.) from 432 of 457 patients who consented to the optional WGAS, including 218 patients administered iloperidone. Of these iloperidone-treated patients, 183 (152 men and 31 women) with QT data at Day 14 were part of the WGAS reported here. They included 16 Asian, 69 white, and 91 black or African American patients and 7 patients of other ethnic origins.
Twelve-lead ECG was performed at baseline and on Days 7, 14, 21, and 28. Except at baseline, ECG was performed 2 hours after patients had received the morning dose of study drug. ECG was performed 3 times at baseline and on Day 14, with single measurements obtained for other visits. QTc interval was calculated based on QTcF. The effect of iloperidone on QTc interval was measured by the mean change from baseline in Qtc.
Genetic markers associated with prolongation of QTcF were identified through GLM analysis. The dependent variable was mean change from baseline to Day 14 because the effects on QT were greatest by Day 14, when iloperidone achieves steady state concentration. Baseline QTcF was used as a covariate, and genotype was used as the classifiable variable. The GLM used type 3 sums of squares, with all pairwise differences produced among the least squares means. Because 3 genetic models (AA vs non-AA; AB vs non-AB; BB vs non-BB) were tested for each of the 334,563 SNPs, a total of 1,003,689 tests were performed. The Benjamini and Hochberg (BH) procedure was used to control for the expected proportion of FDR. FDR corrections were obtained from PROC MULTTEST (SAS Institute, Cary, N.C.), which produces BH adjustments to original analytical P values. […]

In the case of `COc1cc(C(C)=O)ccc1OCCCN1CCC(c2noc3cc(F)ccc23)CC1` [Iloperidone, 1-[4-[3-[4-(6-fluoro-1,2-benzisoxazol-3-yl)-1-piperidinyl]propoxy]-3-methoxyphenyl]ethanone], the “torsades de pointes in treated patients” value [1] is reported as “no evidence to date indicates that any patient treated with iloperidone has experienced torsades de pointes”, the “mean change in QT (QTcF) from baseline to Day 14” value (“mean change in QT (QTcF)” for short) ([2]; rs993648 (CERKL) genotype CC, N=50) is reported as 17.02 ms and the “mean change in QT (QTcF)” value ([2]; rs993648 (CERKL) genotype CT (heterozygous), N=80) is reported as 4.50 ms. For the same compound, the “mean change in QT (QTcF)” value ([2]; rs993648 (CERKL) genotype CT (heterozygous), N=80, listed as iloperidone) was 4.5 ms, the “mean change in QT (QTcF)” value ([2]; rs993648 (CERKL) genotype Non-CT (homozygous), N=94) was 17.81 ms and the “mean change in QT (QTcF)” value ([2]; rs993648 (CERKL) genotype Non-CT (homozygous), N=94, listed as iloperidone) was 17.8 ms. The “mean change in QT (QTcF)” value ([2]; rs993648 (CERKL) genotype TT, N=44) was 18.72 ms, the “mean change in QT (QTcF)” value ([2]; rs3924426 (SLCO3A1) genotype CC, N=5) was -7.00 ms and the “mean change in QT (QTcF)” value ([2]; rs3924426 (SLCO3A1) genotype CT, N=43) was 3.64 ms. The “mean change in QT (QTcF)” value ([2]; rs3924426 (SLCO3A1) genotype Non-TT, N=48) was 2.53 ms, the “mean change in QT (QTcF)” value ([2]; rs3924426 (SLCO3A1) genotype Non-TT, N=48, listed as iloperidone) was 2.5 ms and the “mean change in QT (QTcF)” value ([2]; rs3924426 (SLCO3A1) genotype TT, N=135) was 14.99 ms. For the same compound, the “mean change in QT (QTcF)” value ([2]; rs3924426 (SLCO3A1) genotype TT, N=135, listed as iloperidone) was 15.0 ms, the “mean change in QT (QTcF)” value ([2]; rs4799915 (BRUNOL4) genotype CC, N=48) was 2.88 ms and the “mean change in QT (QTcF)” value ([2]; rs4799915 (BRUNOL4) genotype CC, N=48, listed as iloperidone) was 2.9 ms. For the same compound, the “mean change in QT (QTcF)” value ([2]; rs4799915 (BRUNOL4) genotype CT, N=78) was 13.52 ms, the “mean change in QT (QTcF)” value ([2]; rs4799915 (BRUNOL4) genotype Non-CC, N=132) was 14.46 ms and the “mean change in QT (QTcF)” value ([2]; rs4799915 (BRUNOL4) genotype Non-CC, N=132, listed as iloperidone) was 14.5 ms. The “mean change in QT (QTcF)” value ([2]; rs4799915 (BRUNOL4) genotype TT, N=54) was 15.81 ms, the “mean change in QT (QTcF)” value ([2]; rs4933824 (NRG3) genotype GG, N=124) was 15.33 ms and the “mean change in QT (QTcF)” value ([2]; rs4933824 (NRG3) genotype GG, N=124, listed as iloperidone) was 15.3 ms. The “mean change in QT (QTcF)” value ([2]; rs4933824 (NRG3) genotype GT, N=47) was 4.62 ms, the “mean change in QT (QTcF)” value ([2]; rs4933824 (NRG3) genotype Non-GG, N=57) was 4.41 ms and the “mean change in QT (QTcF)” value ([2]; rs4933824 (NRG3) genotype Non-GG, N=57, listed as iloperidone) was 4.4 ms. For the same compound, the “mean change in QT (QTcF)” value ([2]; rs4933824 (NRG3) genotype TT, N=10) was 3.41 ms, the “mean change in QT (QTcF)” value ([2]; rs7142881 (NUBPL) genotype AA, N=28) was 17.65 ms and the “mean change in QT (QTcF)” value ([2]; rs7142881 (NUBPL) genotype AG, N=71) was 16.35 ms. For the same compound, the “mean change in QT (QTcF)” value ([2]; rs7142881 (NUBPL) genotype GG, N=79) was 5.67 ms, the “mean change in QT (QTcF)” value ([2]; rs7142881 (NUBPL) genotype GG, N=79, listed as iloperidone) was 5.7 ms and the “mean change in QT (QTcF)” value ([2]; rs7142881 (NUBPL) genotype Non-GG, N=99) was 16.71 ms. For the same compound, the “mean change in QT (QTcF)” value ([2]; rs7142881 (NUBPL) genotype Non-GG, N=99, listed as iloperidone) was 16.7 ms, the “mean change in QT (QTcF)” value ([2]; rs17054392 (PALLD) genotype CC, N=2) was 17.33 ms and the “mean change in QT (QTcF)” value ([2]; rs17054392 (PALLD) genotype CT (heterozygous), N=30) was -0.69 ms. The “mean change in QT (QTcF)” value ([2]; rs17054392 (PALLD) genotype CT (heterozygous), N=30, listed as iloperidone) was -0.7 ms, the “mean change in QT (QTcF)” value ([2]; rs17054392 (PALLD) genotype Non-CT, N=153) was 14.16 ms and the “mean change in QT (QTcF)” value ([2]; rs17054392 (PALLD) genotype Non-CT, N=153, listed as iloperidone) was 14.2 ms. The “mean change in QT (QTcF)” value ([2]; rs17054392 (PALLD) genotype TT, N=151) was 14.12 ms.
